Patent publication US20050203000A1, “Use of benzyl alcohol, and other phenolic preservatives to reduce pain during intradermal injection” (priority 2003, published 2005)

Experiments:
[1] = Dermal irritancy of preservatives in intradermal formulations (Draize dermal irritation scoring); type: in vivo, human; details: irritancy potential had been seen in animal models such as swine
Description: Benzyl alcohol, m-cresol and other preservatives were previously thought to be deleterious for inclusion in ID formulations based on their potential for dermal irritancy measured in animal models such as swine (Draize Irritancy Scores, NB 00-8440-01). In humans, however, these effects are not observed and beneficial results are gained in the perception of reduced pain.
(§1) Typically, each participating subject received a series of ‘treatments’ consisting of intradermal infusions or injections of either sterile unpreserved isotonic saline, or sterile bacteriostatic isotonic saline for injection in the anterior thigh using microneedle-based intradermal injection devices. Participants were asked to rate the pain immediately after the device was applied to the skin, and at the end of the injection/infusion procedure. In addition, injection sites were evaluated for irritation using the Draize dermal irritation scoring scale for erythema and edema, and for the presence of any other adverse skin effects, occurring at the time of injection or developing at a later time.

[2] = Pain perception of intradermal injection/infusion, Gracely Box SL Scale (0-20), human clinical study; type: in vivo; details: recent clinical trials
Procedure: A series of prospective, randomized, open label human clinical studies were conducted. The following inclusion criteria was typically used: • 18 years of age or older • In stable health status with no acute or severe illness • Willing to complete all study procedures • Available for designated study days
as §1, with “time. […]” for “time.”
Pain was determined using a Gracely Box SL Scale (reference: Heft, Gracely and Dubner, Pain, 1980, 9:363-373). Pain scores were typically recorded after insertion of the intradermal delivery device, and upon complete intradermal instillation of the total saline dose. […]
Typically, pain scale scores were analyzed by ANOVA using a linear-type model. […]

Compound | Dermal irritancy effects in humans [1] | Pain scores for intradermal delivery compared with preservative-free solutions [2]
OCc1ccccc1 [Benzyl alcohol] | not observed | 
Cc1cccc(O)c1 [m-cresol] | not observed | 
insulin |  | significantly lower pain scores
